Reference: patent publication US20260256670A1, “COMPOSITION CONTAINING PEPTIDES HAVING SKIN-LIGHTENING EFFECT” (REMEDI CO., LTD., priority 2022, published 2026)
Ends that are not written are not given here.

Test system: HaCaT cells
Assay: Cytotoxicity evaluation (CCK8 assay)
Assay type: cell-based
Details: serum-free medium, 24 hours
Experimental: HaCaT cells and B16F10 cells were cultured in a cell culture medium supplemented with 10% of fetal bovine serum (FBS) and antibiotic solution (100 units/ml penicillin, 100 μg/ml of streptomycin) in DMEM medium. The cells were cultured under conditions maintained at 37° C., 95% humidity, and 5% CO2, and when the cells were 70-80% adhered to the culture dish, they were treated with trypsin-EDTA and subcultured. HaCaT cells were distributed and cultured from Professor Tae-Yoon Kim of the College of Medicine, The Catholic University of Korea, and B16F10 cells were distributed and cultured from the Korean Cell Line Bank.
To evaluate the toxicity of RMNE1 in HaCaT skin cells, 3×10^4 of HaCaT cells were attached to a 96-well plate 12 hours ago. Thereafter, the cells were washed using serum-free DMEM medium and then treated with RMNE1 peptide at different concentrations in the serum-free medium. After 24 hours, the cells were washed a total of three times with serum-free medium, and then cell activity was measured using the CCK8 assay.

DEQERRRRRGRTRVRSE [RMNE1, DEQERRRRRGRTRVRSE]
cytotoxicity: low cytotoxicity
